What follows are compounds tested on Mycobacterium tuberculosis variant bovis (assay: Antibacterial activity against Mycobacterium bovis BCG assessed as reduction in bacterial growth).
Type: functional, organism-based

In order of falling IC50:
1. CC(C)(C)c1ccc(CCNc2ncnc3ccsc23)cc1  5800 nM
2. Fc1ccc2c(NCCc3ccc(OC(F)(F)F)cc3)ncnc2c1  800 nM
3. CC(C)(C)c1ccc(CCNc2ncnc3ccccc23)cc1  800 nM

From ChEMBL document CHEMBL5344478, “Cytochrome bd oxidase: an emerging anti-tubercular drug target” (RSC Med Chem, 2024)
